Data: paper PMC5933747 (PLoS ONE, 2018)
Like-named read-outs stand apart in the source and are kept apart here.

How the values were obtained:
Format in all cases: cell-based
human NaV1.7 = human NaV1.7 (Homo sapiens, UniProt Q15858); experiment: IonWorks Quattro (IWQ) electrophysiology, human NaV1.7
human NaV1.5 = human NaV1.5 (Homo sapiens, UniProt Q14524); experiment: IonWorks Quattro (IWQ) electrophysiology, human NaV1.5
human NaV1.4 = human NaV1.4 (Homo sapiens, UniProt P35499); experiment: IonWorks Quattro (IWQ) electrophysiology, human NaV1.4
[1] = read-out: Glu mutant IWQ IC50 NaV1.7
[2] = read-out: Glu mutant IWQ IC50 NaV1.5
[3] = read-out: Glu mutant IWQ IC50 NaV1.4
[4] = read-out: Ala mutant IWQ IC50 NaV1.7
[5] = read-out: Ala mutant IWQ IC50 NaV1.5
[6] = read-out: Ala mutant IWQ IC50 NaV1.4

Sequence of human NaV1.5 (Q14524 whole entry): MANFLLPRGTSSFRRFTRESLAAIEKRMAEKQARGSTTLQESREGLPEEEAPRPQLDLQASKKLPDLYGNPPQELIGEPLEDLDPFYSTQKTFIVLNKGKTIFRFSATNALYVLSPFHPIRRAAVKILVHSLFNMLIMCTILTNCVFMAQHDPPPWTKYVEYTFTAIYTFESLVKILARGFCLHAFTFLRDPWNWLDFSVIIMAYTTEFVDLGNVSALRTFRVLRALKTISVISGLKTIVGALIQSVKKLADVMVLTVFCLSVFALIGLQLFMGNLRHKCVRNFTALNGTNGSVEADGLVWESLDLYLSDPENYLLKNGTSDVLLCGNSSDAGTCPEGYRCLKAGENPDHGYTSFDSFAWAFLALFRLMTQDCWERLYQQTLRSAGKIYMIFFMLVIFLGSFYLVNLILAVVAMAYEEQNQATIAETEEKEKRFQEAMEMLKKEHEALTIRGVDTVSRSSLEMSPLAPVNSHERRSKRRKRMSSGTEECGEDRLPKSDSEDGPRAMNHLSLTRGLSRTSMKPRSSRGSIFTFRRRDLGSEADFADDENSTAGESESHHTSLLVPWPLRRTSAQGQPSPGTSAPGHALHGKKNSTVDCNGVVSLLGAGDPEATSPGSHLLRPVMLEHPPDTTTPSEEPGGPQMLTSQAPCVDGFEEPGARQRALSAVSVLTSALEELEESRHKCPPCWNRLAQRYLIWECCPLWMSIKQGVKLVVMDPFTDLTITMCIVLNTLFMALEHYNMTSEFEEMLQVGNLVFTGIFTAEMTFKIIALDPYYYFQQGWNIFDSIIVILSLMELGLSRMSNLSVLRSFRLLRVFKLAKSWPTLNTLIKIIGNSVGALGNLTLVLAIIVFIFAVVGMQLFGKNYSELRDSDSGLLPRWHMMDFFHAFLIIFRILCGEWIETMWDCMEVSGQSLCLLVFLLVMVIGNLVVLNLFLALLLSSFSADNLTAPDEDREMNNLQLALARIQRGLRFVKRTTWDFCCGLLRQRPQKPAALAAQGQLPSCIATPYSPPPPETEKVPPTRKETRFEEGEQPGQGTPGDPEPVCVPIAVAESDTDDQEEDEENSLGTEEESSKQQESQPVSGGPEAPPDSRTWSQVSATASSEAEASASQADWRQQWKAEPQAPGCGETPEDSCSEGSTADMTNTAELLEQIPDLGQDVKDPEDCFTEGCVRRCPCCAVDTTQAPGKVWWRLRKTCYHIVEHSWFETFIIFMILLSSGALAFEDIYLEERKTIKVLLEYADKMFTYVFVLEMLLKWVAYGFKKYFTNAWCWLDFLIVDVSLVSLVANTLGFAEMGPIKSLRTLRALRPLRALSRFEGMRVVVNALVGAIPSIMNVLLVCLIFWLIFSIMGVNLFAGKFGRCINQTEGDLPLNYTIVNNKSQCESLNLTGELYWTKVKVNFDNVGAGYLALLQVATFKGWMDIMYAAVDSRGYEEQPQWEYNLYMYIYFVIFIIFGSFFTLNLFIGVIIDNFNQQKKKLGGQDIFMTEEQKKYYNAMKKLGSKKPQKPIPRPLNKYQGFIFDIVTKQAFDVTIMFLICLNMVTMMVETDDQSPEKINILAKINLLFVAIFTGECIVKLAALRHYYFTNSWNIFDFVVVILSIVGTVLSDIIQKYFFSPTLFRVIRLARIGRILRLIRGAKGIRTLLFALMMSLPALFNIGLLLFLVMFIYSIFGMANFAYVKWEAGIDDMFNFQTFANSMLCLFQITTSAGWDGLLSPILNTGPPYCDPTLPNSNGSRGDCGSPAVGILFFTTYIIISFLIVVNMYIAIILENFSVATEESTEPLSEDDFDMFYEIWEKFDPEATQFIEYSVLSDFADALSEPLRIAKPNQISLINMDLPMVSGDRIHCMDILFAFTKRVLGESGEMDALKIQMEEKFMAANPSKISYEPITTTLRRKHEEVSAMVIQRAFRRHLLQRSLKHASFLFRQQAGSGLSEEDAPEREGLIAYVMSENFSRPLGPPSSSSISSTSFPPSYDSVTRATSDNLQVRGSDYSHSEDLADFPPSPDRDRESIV
Sequence of human NaV1.7 (Q15858 whole entry): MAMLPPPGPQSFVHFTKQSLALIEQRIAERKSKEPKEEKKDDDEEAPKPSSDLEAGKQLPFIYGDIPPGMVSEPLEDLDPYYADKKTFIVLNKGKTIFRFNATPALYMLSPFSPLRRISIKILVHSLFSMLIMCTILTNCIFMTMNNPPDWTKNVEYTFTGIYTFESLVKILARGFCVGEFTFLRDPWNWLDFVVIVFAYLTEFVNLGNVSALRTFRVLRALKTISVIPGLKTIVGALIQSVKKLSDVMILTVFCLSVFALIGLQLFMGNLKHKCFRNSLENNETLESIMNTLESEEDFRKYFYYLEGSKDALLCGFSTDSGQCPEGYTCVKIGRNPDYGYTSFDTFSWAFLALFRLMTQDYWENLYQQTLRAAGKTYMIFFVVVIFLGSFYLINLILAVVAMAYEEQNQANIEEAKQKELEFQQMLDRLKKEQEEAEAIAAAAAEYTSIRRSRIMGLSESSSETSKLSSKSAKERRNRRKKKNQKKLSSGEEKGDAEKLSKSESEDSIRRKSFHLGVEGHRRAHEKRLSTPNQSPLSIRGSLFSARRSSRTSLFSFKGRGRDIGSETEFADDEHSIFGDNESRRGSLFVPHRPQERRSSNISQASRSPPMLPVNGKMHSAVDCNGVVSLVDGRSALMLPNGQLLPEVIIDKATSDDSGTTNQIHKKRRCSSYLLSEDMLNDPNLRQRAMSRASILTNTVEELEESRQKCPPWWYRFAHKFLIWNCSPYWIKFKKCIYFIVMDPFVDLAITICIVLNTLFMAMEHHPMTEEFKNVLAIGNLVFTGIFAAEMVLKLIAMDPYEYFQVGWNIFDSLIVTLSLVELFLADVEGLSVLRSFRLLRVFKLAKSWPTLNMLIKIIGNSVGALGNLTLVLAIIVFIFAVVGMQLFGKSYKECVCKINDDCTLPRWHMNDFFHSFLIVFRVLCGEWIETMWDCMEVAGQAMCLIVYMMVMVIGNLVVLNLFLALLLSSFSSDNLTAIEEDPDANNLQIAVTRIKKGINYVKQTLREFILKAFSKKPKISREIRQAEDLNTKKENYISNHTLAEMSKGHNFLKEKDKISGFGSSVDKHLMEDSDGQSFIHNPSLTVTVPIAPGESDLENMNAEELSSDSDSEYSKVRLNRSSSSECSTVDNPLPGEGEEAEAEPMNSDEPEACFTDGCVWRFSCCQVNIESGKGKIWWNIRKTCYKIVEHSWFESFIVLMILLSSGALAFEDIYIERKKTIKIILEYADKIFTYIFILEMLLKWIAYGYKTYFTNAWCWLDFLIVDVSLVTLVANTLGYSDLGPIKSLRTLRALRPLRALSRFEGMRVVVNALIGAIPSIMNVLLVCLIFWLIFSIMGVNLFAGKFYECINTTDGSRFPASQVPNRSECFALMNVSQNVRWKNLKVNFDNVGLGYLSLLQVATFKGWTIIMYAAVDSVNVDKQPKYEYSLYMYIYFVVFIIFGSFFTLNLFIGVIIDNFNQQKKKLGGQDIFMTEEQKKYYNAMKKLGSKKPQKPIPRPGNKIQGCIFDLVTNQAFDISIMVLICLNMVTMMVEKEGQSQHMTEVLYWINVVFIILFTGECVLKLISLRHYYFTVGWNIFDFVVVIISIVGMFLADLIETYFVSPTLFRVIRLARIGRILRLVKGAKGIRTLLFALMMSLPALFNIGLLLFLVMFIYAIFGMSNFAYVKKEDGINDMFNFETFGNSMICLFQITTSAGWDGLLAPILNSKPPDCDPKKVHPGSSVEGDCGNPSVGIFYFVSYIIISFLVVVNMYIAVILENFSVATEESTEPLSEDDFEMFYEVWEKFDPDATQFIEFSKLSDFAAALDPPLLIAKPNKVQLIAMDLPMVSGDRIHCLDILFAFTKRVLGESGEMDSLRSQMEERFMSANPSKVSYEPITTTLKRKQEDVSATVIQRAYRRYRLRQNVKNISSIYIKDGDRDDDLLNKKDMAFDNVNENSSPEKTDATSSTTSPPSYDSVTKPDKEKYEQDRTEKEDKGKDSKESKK

SMILES	IC50 (human NaV1.7; [1])	IC50 (human NaV1.5; [2])	IC50 (human NaV1.4; [3])	IC50 (human NaV1.7; [4])	IC50 (human NaV1.5; [5])	IC50 (human NaV1.4; [6])
CC[C@H](C)[C@H](NC(=O)[C@@H](NC(=O)[C@H](CCCCN)NC(=O)[C@H](CCCNC(=N)N)NC(=O)[C@@H]1CSSC[C@@H]2NC(=O)[C@H](C)NC(=O)[C@H](CCCNC(=N)N)NC(=O)[C@H](CCCCN)NC(=O)[C@H](CO)NC(=O)[C@H](CC(=O)O)NC(=O)[C@@H]3CSSC[C@H](NC(=O)[C@H](CCCNC(=N)N)NC(=O)[C@H](CC(C)C)NC(=O)CNC(=O)[C@H](CCC(=O)O)NC(=O)[C@H](CSSC[C@H](NC(=O)[C@@H](N)Cc4ccc(O)cc4)C(=O)N[C@@H](CCC(N)=O)C(=O)N[C@@H](CCCCN)C(=O)N[C@@H](Cc4c[nH]c5ccccc45)C(=O)N[C@@H](CCSC)C(=O)N[C@@H](Cc4c[nH]c5ccccc45)C(=O)N[C@@H]([C@@H](C)O)C(=O)N3)NC2=O)C(=O)N[C@@H](CCCCN)C(=O)N[C@@H](CC(C)C)C(=O)N[C@@H](CCC(=O)O)C(=O)N1)[C@@H](C)CC)C(N)=O [W24 Glu mutant]	9900 nM	> 10000 nM	> 10000 nM			
CC[C@H](C)[C@H](NC(=O)[C@@H](NC(=O)[C@H](CCCCN)NC(=O)[C@H](CCCNC(=N)N)NC(=O)[C@@H]1CSSC[C@@H]2NC(=O)[C@H](C)NC(=O)[C@H](CCCNC(=N)N)NC(=O)[C@H](CCCCN)NC(=O)[C@H](CO)NC(=O)[C@H](CCC(=O)O)NC(=O)[C@@H]3CSSC[C@H](NC(=O)[C@H](CCCNC(=N)N)NC(=O)[C@H](CC(C)C)NC(=O)CNC(=O)[C@H](CCC(=O)O)NC(=O)[C@H](CSSC[C@H](NC(=O)[C@@H](N)Cc4ccc(O)cc4)C(=O)N[C@@H](CCC(N)=O)C(=O)N[C@@H](CCCCN)C(=O)N[C@@H](Cc4c[nH]c5ccccc45)C(=O)N[C@@H](CCSC)C(=O)N[C@@H](Cc4c[nH]c5ccccc45)C(=O)N[C@@H]([C@@H](C)O)C(=O)N3)NC2=O)C(=O)N[C@@H](CCCCN)C(=O)N[C@@H](CC(C)C)C(=O)N[C@@H](Cc2c[nH]c3ccccc23)C(=O)N1)[C@@H](C)CC)C(N)=O [D10 Glu mutant]	1300 nM	> 10000 nM	8800 nM			
CC[C@H](C)[C@H](NC(=O)[C@@H](NC(=O)[C@H](CCCCN)NC(=O)[C@H](CCCNC(=N)N)NC(=O)[C@@H]1CSSC[C@@H]2NC(=O)[C@H](C)NC(=O)[C@H](CCCNC(=N)N)NC(=O)[C@H](CCCCN)NC(=O)[C@H](CO)NC(=O)[C@H](CC(=O)O)NC(=O)[C@@H]3CSSC[C@H](NC(=O)[C@H](CCCNC(=N)N)NC(=O)[C@H](CC(C)C)NC(=O)CNC(=O)[C@H](CCC(=O)O)NC(=O)[C@H](CSSC[C@H](NC(=O)[C@@H](N)Cc4ccc(O)cc4)C(=O)N[C@@H](C)C(=O)N[C@@H](CCCCN)C(=O)N[C@@H](Cc4c[nH]c5ccccc45)C(=O)N[C@@H](CCSC)C(=O)N[C@@H](Cc4c[nH]c5ccccc45)C(=O)N[C@@H]([C@@H](C)O)C(=O)N3)NC2=O)C(=O)N[C@@H](CCCCN)C(=O)N[C@@H](CC(C)C)C(=O)N[C@@H](Cc2c[nH]c3ccccc23)C(=O)N1)[C@@H](C)CC)C(N)=O [Q3 Ala mutant]				378 nM	> 10000 nM	1150 nM
CC[C@H](C)[C@H](NC(=O)[C@@H](NC(=O)[C@H](CCCCN)NC(=O)[C@H](CCCNC(=N)N)NC(=O)[C@@H]1CSSC[C@@H]2NC(=O)[C@H](C)NC(=O)[C@H](CCCNC(=N)N)NC(=O)[C@H](CCCCN)NC(=O)[C@H](CO)NC(=O)[C@H](CC(=O)O)NC(=O)[C@@H]3CSSC[C@H](NC(=O)[C@H](CCCNC(=N)N)NC(=O)[C@H](CC(C)C)NC(=O)CNC(=O)[C@H](CCC(=O)O)NC(=O)[C@H](CSSC[C@H](NC(=O)[C@@H](N)Cc4ccc(O)cc4)C(=O)N[C@@H](CCC(N)=O)C(=O)N[C@@H](C)C(=O)N[C@@H](Cc4c[nH]c5ccccc45)C(=O)N[C@@H](CCSC)C(=O)N[C@@H](Cc4c[nH]c5ccccc45)C(=O)N[C@@H]([C@@H](C)O)C(=O)N3)NC2=O)C(=O)N[C@@H](CCCCN)C(=O)N[C@@H](CC(C)C)C(=O)N[C@@H](Cc2c[nH]c3ccccc23)C(=O)N1)[C@@H](C)CC)C(N)=O [K4 Ala mutant]				417 nM	> 10000 nM	3260 nM
CC[C@H](C)[C@H](NC(=O)[C@@H](NC(=O)[C@H](CCCCN)NC(=O)[C@H](CCCNC(=N)N)NC(=O)[C@@H]1CSSC[C@@H]2NC(=O)[C@H](C)NC(=O)[C@H](CCCNC(=N)N)NC(=O)[C@H](CCCCN)NC(=O)[C@H](CO)NC(=O)[C@H](CC(=O)O)NC(=O)[C@@H]3CSSC[C@H](NC(=O)[C@H](CCCNC(=N)N)NC(=O)[C@H](CC(C)C)NC(=O)CNC(=O)[C@H](CCC(=O)O)NC(=O)[C@H](CSSC[C@H](NC(=O)[C@@H](N)Cc4ccc(O)cc4)C(=O)N[C@@H](CCC(N)=O)C(=O)N[C@@H](CCC(=O)O)C(=O)N[C@@H](Cc4c[nH]c5ccccc45)C(=O)N[C@@H](CCSC)C(=O)N[C@@H](Cc4c[nH]c5ccccc45)C(=O)N[C@@H]([C@@H](C)O)C(=O)N3)NC2=O)C(=O)N[C@@H](CCCCN)C(=O)N[C@@H](CC(C)C)C(=O)N[C@@H](Cc2c[nH]c3ccccc23)C(=O)N1)[C@@H](C)CC)C(N)=O [K4 Glu mutant]	106 nM	> 10000 nM	967 nM			
CC[C@H](C)[C@H](NC(=O)[C@@H](NC(=O)[C@H](CCCCN)NC(=O)[C@H](CCCNC(=N)N)NC(=O)[C@@H]1CSSC[C@@H]2NC(=O)[C@H](C)NC(=O)[C@H](CCCNC(=N)N)NC(=O)[C@H](CCCCN)NC(=O)[C@H](CO)NC(=O)[C@H](CC(=O)O)NC(=O)[C@@H]3CSSC[C@H](NC(=O)[C@H](CCCNC(=N)N)NC(=O)[C@H](CC(C)C)NC(=O)[C@H](CCC(=O)O)NC(=O)[C@H](CCC(=O)O)NC(=O)[C@H](CSSC[C@H](NC(=O)[C@@H](N)Cc4ccc(O)cc4)C(=O)N[C@@H](CCC(N)=O)C(=O)N[C@@H](CCCCN)C(=O)N[C@@H](Cc4c[nH]c5ccccc45)C(=O)N[C@@H](CCSC)C(=O)N[C@@H](Cc4c[nH]c5ccccc45)C(=O)N[C@@H]([C@@H](C)O)C(=O)N3)NC2=O)C(=O)N[C@@H](CCCCN)C(=O)N[C@@H](CC(C)C)C(=O)N[C@@H](Cc2c[nH]c3ccccc23)C(=O)N1)[C@@H](C)CC)C(N)=O [G18 Glu mutant]	165 nM	> 10000 nM	1220 nM			
CC[C@H](C)[C@H](NC(=O)[C@@H](NC(=O)[C@H](CCCCN)NC(=O)[C@H](CCCNC(=N)N)NC(=O)[C@@H]1CSSC[C@@H]2NC(=O)[C@H](C)NC(=O)[C@H](CCCNC(=N)N)NC(=O)[C@H](CCCCN)NC(=O)[C@H](CO)NC(=O)[C@H](CC(=O)O)NC(=O)[C@@H]3CSSC[C@H](NC(=O)[C@H](CCCNC(=N)N)NC(=O)[C@H](CC(C)C)NC(=O)CNC(=O)[C@H](CCC(=O)O)NC(=O)[C@H](CSSC[C@H](NC(=O)[C@@H](N)Cc4ccc(O)cc4)C(=O)N[C@@H](CCC(N)=O)C(=O)N[C@@H](CCCCN)C(=O)N[C@@H](Cc4c[nH]c5ccccc45)C(=O)N[C@@H](CCC(=O)O)C(=O)N[C@@H](Cc4c[nH]c5ccccc45)C(=O)N[C@@H]([C@@H](C)O)C(=O)N3)NC2=O)C(=O)N[C@@H](CCCCN)C(=O)N[C@@H](CC(C)C)C(=O)N[C@@H](Cc2c[nH]c3ccccc23)C(=O)N1)[C@@H](C)CC)C(N)=O [M6 Glu mutant]	> 10000 nM	> 10000 nM	> 10000 nM			
CC[C@H](C)[C@H](NC(=O)[C@@H](NC(=O)[C@H](C)NC(=O)[C@H](CCCNC(=N)N)NC(=O)[C@@H]1CSSC[C@@H]2NC(=O)[C@H](C)NC(=O)[C@H](CCCNC(=N)N)NC(=O)[C@H](CCCCN)NC(=O)[C@H](CO)NC(=O)[C@H](CC(=O)O)NC(=O)[C@@H]3CSSC[C@H](NC(=O)[C@H](CCCNC(=N)N)NC(=O)[C@H](CC(C)C)NC(=O)CNC(=O)[C@H](CCC(=O)O)NC(=O)[C@H](CSSC[C@H](NC(=O)[C@@H](N)Cc4ccc(O)cc4)C(=O)N[C@@H](CCC(N)=O)C(=O)N[C@@H](CCCCN)C(=O)N[C@@H](Cc4c[nH]c5ccccc45)C(=O)N[C@@H](CCSC)C(=O)N[C@@H](Cc4c[nH]c5ccccc45)C(=O)N[C@@H]([C@@H](C)O)C(=O)N3)NC2=O)C(=O)N[C@@H](CCCCN)C(=O)N[C@@H](CC(C)C)C(=O)N[C@@H](Cc2c[nH]c3ccccc23)C(=O)N1)[C@@H](C)CC)C(N)=O [K27 Ala mutant]				374 nM	> 10000 nM	2320 nM
CC[C@H](C)[C@H](NC(=O)[C@@H](NC(=O)[C@H](CCCCN)NC(=O)[C@H](CCCNC(=N)N)NC(=O)[C@@H]1CSSC[C@@H]2NC(=O)[C@H](C)NC(=O)[C@H](CCCNC(=N)N)NC(=O)[C@H](CCCCN)NC(=O)[C@H](CO)NC(=O)[C@H](CC(=O)O)NC(=O)[C@@H]3CSSC[C@H](NC(=O)[C@H](CCCNC(=N)N)NC(=O)[C@H](CC(C)C)NC(=O)CNC(=O)[C@H](CCC(=O)O)NC(=O)[C@H](CSSC[C@H](NC(=O)[C@@H](N)Cc4ccc(O)cc4)C(=O)N[C@@H](CCC(=O)O)C(=O)N[C@@H](CCCCN)C(=O)N[C@@H](Cc4c[nH]c5ccccc45)C(=O)N[C@@H](CCSC)C(=O)N[C@@H](Cc4c[nH]c5ccccc45)C(=O)N[C@@H]([C@@H](C)O)C(=O)N3)NC2=O)C(=O)N[C@@H](CCCCN)C(=O)N[C@@H](CC(C)C)C(=O)N[C@@H](Cc2c[nH]c3ccccc23)C(=O)N1)[C@@H](C)CC)C(N)=O [Q3 Glu mutant]	333 nM	> 10000 nM	1830 nM			
CC[C@H](C)[C@H](NC(=O)[C@@H](NC(=O)[C@H](CCCCN)NC(=O)[C@H](CCCNC(=N)N)NC(=O)[C@@H]1CSSC[C@@H]2NC(=O)[C@H](C)NC(=O)[C@H](CCCNC(=N)N)NC(=O)[C@H](CCCCN)NC(=O)[C@H](CO)NC(=O)[C@H](CC(=O)O)NC(=O)[C@@H]3CSSC[C@H](NC(=O)[C@H](CCCNC(=N)N)NC(=O)[C@H](CC(C)C)NC(=O)CNC(=O)[C@H](CCC(=O)O)NC(=O)[C@H](CSSC[C@H](NC(=O)[C@@H](N)Cc4ccc(O)cc4)C(=O)N[C@@H](CCC(N)=O)C(=O)N[C@@H](CCCCN)C(=O)N[C@@H](Cc4c[nH]c5ccccc45)C(=O)N[C@@H](CCSC)C(=O)N[C@@H](Cc4c[nH]c5ccccc45)C(=O)N[C@@H]([C@@H](C)O)C(=O)N3)NC2=O)C(=O)N[C@@H](CCCCN)C(=O)N[C@@H](CC(C)C)C(=O)N[C@@H](C)C(=O)N1)[C@@H](C)CC)C(N)=O [W24 Ala mutant]				> 10000 nM	> 10000 nM	> 10000 nM
